Test results: patent publication US8809325B2, “Benzyl-oxathiazine derivatives substituted with adamantane and noradamantane, medicaments containing said compounds and use thereof” (SANOFI, priority 2011, dated 2014)

Biological target: human 11β-HSD1 microsome fraction (Homo sapiens, UniProt P28845)
Test: Enzymatic 11beta-HSD1 test (SPA-based detection)
Format: biochemical
Conditions: human 11β-HSD1 microsomes, [1,2-3H]-cortisone, NADPH, 37° C., 1 hour
Method: Enzymatic 11beta-HSD1 Test:
To measure the activity of the compounds, an SPA-based detection method (Solly et al. 2005) was employed. First of all, 20 μl of the human 11β-HSD1 microsome fraction (0.2 μg of protein), prepared in 50 mM HEPES, 0.1% BSA (w/v), were applied to a plate with 384 wells. The test compounds (0.09 μl) were applied to the assay plate in 100% DMSO. The reaction was started by addition of 20 μl of [1,2-^3H]-cortisone (0.1 μCi/[…]) in assay buffer comprising 25 mM HEPES, 100 mM KCl, 5 mM NaCl, 2 mM MgCl2 and 0.25 mM NADPH. The plate was agitated at 37° C. for 1 hour. At the same time, a stop solution comprising 20 mg/ml SPA-PVT beads, 1.6 mg/ml monoclonal cortisol antibody and 0.01 mM SSR110887 (inhibitor from the Biovitrium patent) in 50 mM HEPES, 1 M NaCl and 1 M KCl was stirred at room temperature. To stop the reaction, 25 μl of the stop solution were added to each well. The plate was agitated gently at room temperature for 1 further hour and then centrifuged at 500 gav for 1 minute, in order that the SPA beads could settle out. The plate was then read in a Wallac-1450-Microbeta unit with a standard SPA program (counting time 1 min/well). The comparative compound was glycyrrhetinic acid.
Protein and radioactive substrate were dispensed with a Biomek FX unit (Beckman Coulter) for handling liquids. […]

human 11β-HSD1 microsome fraction, sequence (P28845 whole entry): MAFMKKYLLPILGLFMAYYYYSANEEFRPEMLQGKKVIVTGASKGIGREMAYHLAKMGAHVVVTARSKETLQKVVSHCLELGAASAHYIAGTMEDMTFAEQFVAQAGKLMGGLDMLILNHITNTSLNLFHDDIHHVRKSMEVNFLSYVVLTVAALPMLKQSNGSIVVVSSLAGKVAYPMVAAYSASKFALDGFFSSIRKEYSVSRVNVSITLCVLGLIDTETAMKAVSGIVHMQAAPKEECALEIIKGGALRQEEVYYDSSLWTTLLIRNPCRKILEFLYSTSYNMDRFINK

SMILES: CCN1CC(c2ccc(C[C@@H]3C(C)(C)OC(NC45C[C@@H]6C[C@@H](C[C@H]4C6)C5)=NS3(=O)=O)c(F)c2)C1 [Example 6, {(R)-5-[4-(1-Ethyl-azetidin-3-yl)-2-fluoro-benzyl]-6,6-dimethyl-4,4-dioxo-5,6-dihydro-4H-4lambda6-[1,4,3]oxathiazin-2-yl}-(2R,3aS,5S,6aS)-hexahydro-2,5-methano-pentalen-3a-yl-amine]
- IC50: 3 nM
